The subject of experiment [1] is calpain. The following applies: M. R. Angelastro et al., J. Med. Chem. 1990,33, 11-13; cited from earlier work.
Experiment [2] concerns the target T1, Human μ-calpain (Homo sapiens, UniProt P07384).
T1 construct: Human μ-calpain is isolated from erythrocytes; from tissue; host or cells: human erythrocytes (purified on DEAE Sepharose, phenyl Sepharose, Superdex 200 and Blue Sepharose)
T1 sequence (P07384 1-714): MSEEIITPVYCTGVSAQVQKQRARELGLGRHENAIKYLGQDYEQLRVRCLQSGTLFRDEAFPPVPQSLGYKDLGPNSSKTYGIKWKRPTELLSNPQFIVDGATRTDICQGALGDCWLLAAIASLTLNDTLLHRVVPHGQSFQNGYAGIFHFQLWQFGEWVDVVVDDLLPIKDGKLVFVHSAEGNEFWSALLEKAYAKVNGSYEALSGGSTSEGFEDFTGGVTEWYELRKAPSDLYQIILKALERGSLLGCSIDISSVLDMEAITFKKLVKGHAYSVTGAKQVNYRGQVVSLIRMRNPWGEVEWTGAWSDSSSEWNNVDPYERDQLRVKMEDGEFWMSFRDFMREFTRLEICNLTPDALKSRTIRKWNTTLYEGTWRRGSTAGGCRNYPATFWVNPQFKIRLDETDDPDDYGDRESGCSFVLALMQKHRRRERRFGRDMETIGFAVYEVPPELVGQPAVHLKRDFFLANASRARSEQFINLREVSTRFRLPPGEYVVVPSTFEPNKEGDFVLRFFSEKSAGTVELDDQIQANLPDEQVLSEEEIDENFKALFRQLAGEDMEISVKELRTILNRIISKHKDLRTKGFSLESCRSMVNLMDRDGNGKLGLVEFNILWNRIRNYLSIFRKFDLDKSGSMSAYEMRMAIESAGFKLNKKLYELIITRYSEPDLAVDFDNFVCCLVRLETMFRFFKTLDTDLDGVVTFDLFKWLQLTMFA
T1 sequence (P04632 1-268 partner): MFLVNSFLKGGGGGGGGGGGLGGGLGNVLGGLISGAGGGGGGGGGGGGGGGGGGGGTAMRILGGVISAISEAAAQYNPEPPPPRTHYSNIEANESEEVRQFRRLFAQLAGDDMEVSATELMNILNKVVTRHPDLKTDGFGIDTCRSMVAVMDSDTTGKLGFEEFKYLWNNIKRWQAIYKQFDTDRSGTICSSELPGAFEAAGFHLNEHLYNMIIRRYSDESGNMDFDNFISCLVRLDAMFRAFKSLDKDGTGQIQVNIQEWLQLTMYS
Description: Calpain I test (Ki, fluorogenic substrate Suc-Leu-Tyr-AMC). The class given is biochemical. To be noted: human μ-calpain from erythrocytes, reversible inhibition. As to the method:
Calpain I and Calpain II Test
The inhibitory properties of calpain inhibitors are tested in buffer containing 50 mM tris-HCl, pH 7.5; 0.1 M NaCl; 1 mM dithiotreithol [sic]: 0.11 mM CaCl2, using the fluorogenic calpain substrate Suc-Leu-Tyr-AMC (25 mM, dissolved in DMSO, Bachem/Switzerland) (Sasaki et al. J. Biol. Chem. 1984, Vol. 259, 12489-12494). Human μ-calpain is isolated from erythrocytes following the methods of Croall and DeMartino (BBA 1984, Vol. 788, 348-355) and Graybill et al. (Bioorg. & Med. Lett. 1995, Vol. 5, 387-392). After several chromatographic steps (DEAE Sepharose, phenyl Sepharose, Superdex 200 and Blue Sepharose), the enzyme is obtained at a purity of […], as assessed by SDS-PAGE, Western blot analysis and N-terminal sequencing. The fluorescence of the cleavage product 7-amino-4-methylcoumarin (AMC) is followed in a Spex-Fluorolog fluorimeter at λex =380 nm and λem =460 nm. […]
In a typical experimental mixture, 10 μl of substrate (250 μm final concentration) and then 10 μl of μ-calpain (2 μg/ml final concentration, ie. 18 nM) are added to a 1 ml cuvette which contains buffer. The calpain-mediated cleavage of the substrate is measured for from 15 to 20 min. […] Ki values are determined using the customary equation for reversible inhibition, ie. […]

For the compound `COC(=O)C(=O)C(Cc1ccccc1)NC(=O)c1ccccc1` (centres unmarked) [Ph-CONH--CH(CH2 Ph)--CO--COOCH3], the “inhibitor of calpain (in words)” value in experiment [1] was “weak inhibitor”.

What is called Ki is the equilibrium dissociation constant of an inhibitor or competing ligand from its target. Lower therefore signals a stronger hold on the target. The compound “(S)-N-(1-Ethoxycarbonyl-1-oxo-3-phenylpropan-2-yl)-2-phenylbenzamide [Example 24]” yielded a Ki in experiment [2] of less than 10 µM.

Values taken from patent US6103720A, “Ketobenzamides as calpain inhibitors” (BASF Aktiengesellschaft, priority 1996, dated 2000).
